Source: patent US10829499B2, “Tetracyclic heterocycle compounds useful as HIV integrase inhibitors” (MERCK SHARP & DOHME CORP., priority 2016, dated 2020)
Where two headings read alike, the source gives them in different places.

Test system: HIV-1 (NL4-3 strain)
Assay: Assay for Inhibition of HIV Replication (kinetic assay, MT4-gag-GFP reporter cell line; VIKING)
Assay type: cell-based
Description: This assay is a kinetic assay that employs a reporter cell line (MT4-gag-GFP) to quantify the number of new cells infected in each round of replication.
MT4-GFP cells (250,000 cells/ml) were bulk-infected with HIV-1 (NL4-3 strain) at low multiplicity of infection (MOI) in RPMI cell culture medium+10% FBS for 24 hours. Cells were then washed once in RPMI cell culture medium+10% FBS and resuspended in RPMI cell culture medium+0% or 10% or 100% normal human serum (NHS). Test compounds were serial-diluted in DMSO on an ECHO® liquid handler. The infected MT4-GFP cells were added to a 384-well poly-D-lysine coated black plate with clear bottom in which the diluted test compounds were placed. The cells were seeded at 8,000 cells per well and the final DMSO concentration was 0.4%. The infected cells (Green GFP cells) were quantified at both 24 and 48 hours post incubation using Acumen eX3. Viral reproductive ratio (R0) was determined using the number of infected cells at 48 hours divided by the number of infected cells at 24 hours. Percent viral growth inhibition was calculated by [1-(R-Rtripledrug),/(RDMSO-Rtripledrug)]*100. Compound potency IP or IC50 was determined by a 4-parameter dose response curve analysis. In vitro potency in the cell-based assay in the absence of normal human serum (NHS) and the presence of 100% NHS.

[1] = MT4-GFP cells infected with HIV-1 NL4-3, 0% normal human serum (NHS), read-out: VIKING IP50 (nM) with 0% NHS
[2] = MT4-GFP cells infected with HIV-1 NL4-3, 100% normal human serum (NHS), read-out: VIKING IP50 (nM) with 100% NHS
[3] = Human immunodeficiency virus 1, NL43, MT4-GFP cells infected with HIV-1 NL4-3, 0% normal human serum (NHS), read-out: VIKING IP50 (nM) with 0% NHS

Compound	IC50 [1] [nM]	IC50 [2] [nM]	IC50 [3] [nM]	IC50 (Human immunodeficiency virus 1, NL43, MT4-GFP cells infected with HIV-1 NL4-3, 100% normal human serum (NHS), read-out: VIKING IP50 (nM) with 100% NHS) [nM]
O=C(NCc1ccc(F)cc1F)c1c2n3c(c(O)c1=O)C(=O)N1CCOC1C3CC2 (single isomer, unassigned) [Compound 7]	2.15	1410		
O=C(NCc1ccc(F)c(Cl)c1)c1c2n3c(c(O)c1=O)C(=O)N1CCOC1C3CC2 (single isomer, unassigned) [Compound 25]	0.809	2540		
C[C@H]1CN2C(=O)c3c(O)c(=O)c(C(=O)NCc4cccc(Cl)c4F)c4n3C(CC4)C2N1 (stereo partly shown) [Compound 94]	0.503	14.5		
C[C@@H]1COC2C3CCc4c(C(=O)NCc5cccc(Cl)c5F)c(=O)c(O)c(n43)C(=O)N21 (single isomer, unassigned) [Compound 37]	0.546	1690		
CCNC1CC2C3OCCCN3C(=O)c3c(O)c(=O)c(C(=O)NCc4cccc(Cl)c4F)c1n32 (stereo not shown) [Compound 199]	7.12	42.9		
CCNC1CC2C3OCCCN3C(=O)c3c(O)c(=O)c(C(=O)NCc4cccc(F)c4F)c1n32 (stereo not shown) [Compound 189]	11	3870		
O=C(NCc1ccc(F)cc1)c1c2n3c(c(O)c1=O)C(=O)N1CCCOC1C3CC2 (single isomer, unassigned) [Compound 51]		32.6	1.25	
O=C(NCc1cccc(Cl)c1F)c1c2n3c(c(O)c1=O)C(=O)N1C4CCC(C4)OC1C3CC2 (stereo not shown) [Compound 152]		2100	5.52	
CN1CCCN2C(=O)c3c(O)c(=O)c(C(=O)NCc4ccc(F)cc4F)c4n3C(CC4)C12C (stereo not shown) [Compound 142]	0.504	9.41		
O=C(NCc1c(F)cccc1F)c1c2n3c(c(O)c1=O)C(=O)N1CCOC1C3CC2 (single isomer, unassigned) [Compound 17]	7.09	7940		
C[C@H]1CN2C(=O)c3c(O)c(=O)c(C(=O)NCc4cccc(Cl)c4F)c4n3C(CC4)C2O1 (single isomer, unassigned) [Compound 43]	1.06	18.2		
C[C@@H]1CN2C(=O)c3c(O)c(=O)c(C(=O)NCc4cccc(Cl)c4F)c4n3C(CC4)C2O1 (single isomer, unassigned) [Compound 39]	0.575			8000
CCCN1C[C@H](C)N2C(=O)c3c(O)c(=O)c(C(=O)NCc4cccc(Cl)c4F)c4n3C(CC4)C12 (stereo partly shown) [Compound 114]	6.36	175		
C[C@H]1CN2C(=O)c3c(O)c(=O)c(C(=O)NCc4cccc(Cl)c4F)c4n3C(CC4)C2N1C (stereo partly shown) [Compound 104]	0.397	71.4		
O=C(NCc1cccc(F)c1F)c1c2n3c(c(O)c1=O)C(=O)N1C4CCC(C4)OC1C3CC2 (stereo not shown) [Compound 167]	3.78	3390		
C[C@H]1CN2C(=O)c3c(O)c(=O)c(-c4nnc(Cc5ccc(F)cc5F)s4)c4n3C(CC4)C2N1 (stereo partly shown) [Compound 130]		92.8	3.53	
CCNC1CC2C3OCCCN3C(=O)c3c(O)c(=O)c(C(=O)NCc4c(F)cc(F)cc4F)c1n32 (stereo not shown) [Compound 184]	5	167		
C[C@@H]1CN2C(=O)c3c(O)c(=O)c(C(=O)NCc4cccc(Cl)c4F)c4n3C(CC4)C2O1 (single isomer, unassigned) [Compound 40]	1.84	8000		
O=C(NCc1cccc(F)c1F)c1c2n3c(c(O)c1=O)C(=O)N1C4CCC(C4)OC1C3CC2 (stereo not shown) [Compound 164]		1390	4.89	
O=C(NCc1ccc(F)cc1)c1c2n3c(c(O)c1=O)C(=O)N1C4CCC(C4)OC1C3CC2 (stereo not shown) [Compound 163]	4.32	1660		
